Laboratory results reported in patent US12551570B2, “Compounds comprising cleavable linker and uses thereof” (IntoCell, Inc., priority 2019, dated 2026).

Experiments:
[1] = Plasma stability test, mouse plasma; assay type: in vitro ADME; conditions: 37° C., 300 μM
Description: (§1) Compound A-2 or A-3 and MPS used as an internal standard were dissolved in DMSO to achieve a concentration of 60 mM. Then, each of human plasma (Biochemed 752PR-SC-PMG), mouse plasma (Biochemed 029-APSC-MP), rat plasma (Biochemed 031-APSC-MP), and beagle dog plasma (Biochemed 013-APSC-MP) were mixed with the solution of the compound and MPS to achieve a final concentration of 300 μM (final 0.5% DMSO). The resulting plasma mixtures were incubated at 37° C. Aliquots were taken before the reaction and after 1 day, 2 days, 4 days, and 7 days. Each aliquot was 300 μL. To complete the reaction, two-fold volume of acetonitrile was added, followed by brief vortexing and centrifugation for plasma protein precipitation. Each supernatant obtained after centrifugation was collected and analyzed by HPLC. Compounds A-2 and A-3 were detected and quantitated in the mouse and human plasma for up to 7 days (>95%). […] The results of the plasma stability studies are shown in Tables 3 and 4 and FIGS. 6 and 7.

[2] = Plasma stability test, human plasma; assay type: in vitro ADME; conditions: 37° C., 300 μM
Description: as §1

Remaining Substrate, %, Mouse Plasma ([1]; 0 days) | Remaining Substrate, %, Mouse Plasma ([1]; 1 day) | Remaining Substrate, %, Mouse Plasma ([1]; 2 days) | Remaining Substrate, %, Mouse Plasma ([1]; 7 days) | Remaining Substrate, %, Human Plasma ([2]; 0 days) | Remaining Substrate, %, Human Plasma ([2]; 1 day) | Remaining Substrate, %, Human Plasma ([2]; 2 days) | Remaining Substrate, %, Human Plasma ([2]; 7 days) | Remaining Substrate, %, Mouse Plasma ([1]; 4 days) | Remaining Substrate, %, Human Plasma ([2]; 4 days) | Structure (SMILES)
100% | 94% | 90% | 92% | 100% | 97% | 98% | 99% | – | – | C[N+]1(Cc2ccc(OS(=O)(=NCCOCCOCCOCCN=[N+]=[N-])Oc3ccccc3O[C@@H]3O[C@H](CO)[C@H](O)[C@H](O)[C@H]3O)cc2)CCCC[C@@H]1C(=O)Nc1ccccc1 (stereo partly drawn) [Compound A-3]
100% | 102% | 100% | 95% | 100% | 100% | 104% | 101% | 97% | 99% | CC(C)(C)OC(=O)N[C@@H](Cc1ccc(OS(=O)(=NCCOCCOCCOCCN=[N+]=[N-])Oc2ccccc2O[C@@H]2O[C@H](CO)[C@H](O)[C@H](O)[C@H]2O)cc1)C(=O)O (stereo partly drawn) [Compound A-2]
